Test results reported in ChEMBL document CHEMBL3879907, “8-azabicyclo[3.2.1]octane compounds as mu opioid receptor antagonists” (2014).

Columns and labels:
[1] = biological target: Delta-type opioid receptor (Homo sapiens, UniProt P41143); experiment: Displacement of [3H]-diprenorphine from human delta opioid receptor expressed in cell membranes
[2] = biological target: Kappa-type opioid receptor (Cavia porcellus, UniProt P41144); experiment: Displacement of [3H]-diprenorphine from guinea pig kappa opioid receptor expressed in CHOK1 cell membranes; conditions: cho-k1
Mus musculus [3] = experiment: Reversal of morphine-induced delayed gastrointestinal transit in sc dosed mouse compound administered prior to morphine challenge followed by non-nutritive, non-absorbable charcol meal administration by oral gavage at 5 mins post morphine challenge for 60 mins; format: functional; conditions: read-out: ID50 (the source's name)
Mus musculus [4] = experiment: Reversal of morphine-induced delayed gastrointestinal transit in po dosed mouse compound administered prior to morphine challenge followed by non-nutritive, non-absorbable charcol meal administration by oral gavage at 5 mins post morphine challenge for 60 mins; format: functional; conditions: read-out: ID50 (the source's name)
[5] = biological target: Mu-type opioid receptor (Homo sapiens) (UniProt P35372); experiment: Intrinsic activity at human mu opioid receptor expressed in CHOK1 cell membranes at 0.00001 to 20 uM after 30 mins by GTP-Eu nucleotide exchange assay relative to DAMGO; format: functional; conditions: CHO-K1
Sequence of Mu-type opioid receptor (Homo sapiens) (P35372 whole entry): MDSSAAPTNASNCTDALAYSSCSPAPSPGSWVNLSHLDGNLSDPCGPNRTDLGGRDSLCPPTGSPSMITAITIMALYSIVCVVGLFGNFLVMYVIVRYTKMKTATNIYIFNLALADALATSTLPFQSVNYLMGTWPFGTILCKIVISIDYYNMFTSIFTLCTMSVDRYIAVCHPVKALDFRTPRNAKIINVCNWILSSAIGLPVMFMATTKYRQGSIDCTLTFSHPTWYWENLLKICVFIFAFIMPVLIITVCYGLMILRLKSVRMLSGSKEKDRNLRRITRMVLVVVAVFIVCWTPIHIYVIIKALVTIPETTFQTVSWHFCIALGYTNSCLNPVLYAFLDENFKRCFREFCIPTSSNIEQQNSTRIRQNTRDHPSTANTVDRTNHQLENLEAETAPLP

Sequence of Delta-type opioid receptor (P41143 whole entry): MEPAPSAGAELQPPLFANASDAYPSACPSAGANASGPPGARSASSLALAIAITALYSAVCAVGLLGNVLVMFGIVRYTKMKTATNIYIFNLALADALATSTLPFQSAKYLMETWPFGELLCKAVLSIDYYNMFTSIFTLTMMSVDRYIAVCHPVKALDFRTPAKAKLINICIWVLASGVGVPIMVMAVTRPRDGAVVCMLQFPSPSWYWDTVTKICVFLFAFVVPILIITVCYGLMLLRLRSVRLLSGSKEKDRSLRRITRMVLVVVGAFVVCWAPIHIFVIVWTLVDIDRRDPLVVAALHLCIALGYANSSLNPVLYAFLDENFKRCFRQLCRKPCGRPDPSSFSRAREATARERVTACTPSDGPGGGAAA
Sequence of Kappa-type opioid receptor (P41144 whole entry): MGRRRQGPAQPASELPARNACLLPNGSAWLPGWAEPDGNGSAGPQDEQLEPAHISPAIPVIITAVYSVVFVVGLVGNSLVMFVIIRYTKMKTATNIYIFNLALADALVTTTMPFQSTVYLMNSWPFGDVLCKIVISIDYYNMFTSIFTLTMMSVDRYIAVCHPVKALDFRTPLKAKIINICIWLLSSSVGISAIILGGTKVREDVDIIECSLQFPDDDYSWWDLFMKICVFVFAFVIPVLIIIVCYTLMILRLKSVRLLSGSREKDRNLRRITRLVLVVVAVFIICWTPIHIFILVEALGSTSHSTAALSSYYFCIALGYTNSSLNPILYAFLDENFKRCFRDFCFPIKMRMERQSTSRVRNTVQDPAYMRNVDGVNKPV

| SMILES | pKi [1] | pKi [2] | ED50 (Mus musculus [3]) [mg/kg] | ED50 (Mus musculus [4]) [mg/kg] | Intrinsic activity [5] [%] |
| --- | --- | --- | --- | --- | --- |
| NC(=O)c1cccc([C@H]2C[C@H]3CC[C@@H](C2)N3CCN(CC2CCCCC2)C(=O)[C@@H](O)CO)c1.O=C(O)C(=O)O | 7 to 10.5 | 7 to 10.5 | 0.1 to 3 | 0.1 to 3 | – |
| NC(=O)c1cccc([C@H]2C[C@H]3CC[C@@H](C2)N3CCN(CC2CCC(F)(F)CC2)C(=O)CO)c1 | 7 to 10.5 | 7 to 10.5 | 0.1 to 3 | 0.1 to 3 | < 40 |
| NC(=O)c1cccc([C@H]2C[C@H]3CC[C@@H](C2)N3CCN(CCc2ccccc2)C(=O)CO)c1 | 7 to 10.5 | – | 0.1 to 3 | 0.1 to 3 | – |
| NC(=O)c1cccc([C@H]2C[C@H]3CC[C@@H](C2)N3CCN(Cc2ccccc2)C(=O)CO)c1 | 7 to 10.5 | 7 to 10.5 | 0.1 to 3 | 0.1 to 3 | – |
